Results taken from ChEMBL document CHEMBL1821573, “A fast virtual screening approach to identify structurally diverse inhibitors of trypanothione reductase” (Bioorg Med Chem Lett, 2011).

Biological target: Trypanothione reductase (Trypanosoma cruzi, UniProt P28593)
Assay: Inhibition of Trypanosoma cruzi TryR using trypanothione as substrate preincubated for 10 mins

Trypanothione reductase, sequence (P28593 whole entry): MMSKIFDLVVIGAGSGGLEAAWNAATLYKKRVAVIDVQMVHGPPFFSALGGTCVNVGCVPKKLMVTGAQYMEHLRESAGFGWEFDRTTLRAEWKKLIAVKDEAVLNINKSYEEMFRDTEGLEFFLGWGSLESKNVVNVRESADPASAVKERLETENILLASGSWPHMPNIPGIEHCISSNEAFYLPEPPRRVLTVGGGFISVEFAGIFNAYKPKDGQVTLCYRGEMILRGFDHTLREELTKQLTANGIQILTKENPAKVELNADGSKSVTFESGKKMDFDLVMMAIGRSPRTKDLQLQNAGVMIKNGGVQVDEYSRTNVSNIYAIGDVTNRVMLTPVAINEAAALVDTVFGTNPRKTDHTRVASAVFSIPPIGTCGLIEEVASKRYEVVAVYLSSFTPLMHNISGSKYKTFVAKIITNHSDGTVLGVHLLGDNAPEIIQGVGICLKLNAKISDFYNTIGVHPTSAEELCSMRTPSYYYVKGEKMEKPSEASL

Row | SMILES | Ki [µM]
1 | COCCn1c(-c2ccccc2)cnc1SCC(=O)CNc1ccc(S(=O)(=O)N2CCCCC2)cc1 | 11.1
2 | N#Cc1c(NC(=O)CSc2nc(-c3ccc(Cl)cc3)c[nH]2)sc2c1CCCC2 | 9.3
3 | Nc1ccc2[nH]c(CCCCCCCCc3nc4cc(N)ccc4[nH]3)nc2c1 | 10.6
4 | CCn1c(-c2ccccc2)cnc1SCC(=O)Nc1sc2c(c1C#N)CCCC2 | 13.1
5 | Cc1sc2ncn3c(SCC(=O)Nc4sc5c(c4C#N)CCCC5)nnc3c2c1C | 11.8
6 | O=C(CNc1ccc(S(=O)(=O)N2CCCCC2)cc1)CSc1ncc(-c2ccc(Cl)cc2)n1-c1ccccc1 | 22.3

The next lines start with the values.

Row | Ki [µM] | SMILES
7 | 26.9 | Cc1ccc2nc(Cc3ccc(NC(=O)C(C)Oc4ccccc4)cc3)[nH]c2c1 (centres undefined)
8 | 13.1 | Cc1ccc2[nH]c(Cc3ccc(NC(=O)CCc4nc5ccccc5[nH]4)cc3)nc2c1
9 | 5.7 | CCn1c(-c2ccccc2)cnc1SCC(=O)Nc1ccc(C2CCCCC2)cc1
